# Values quoted from earlier work, collected in patent publication US20220168203A1, “METHOD FOR PREPARING HAIR TREATMENTS AGENTS WITH ORGANIC C1-C6 ALKOXY-SILANES” (Henkel AG & Co. KGaA, priority 2019, published 2022).
# Conditions: 25° C.
molecule,measurement,value
"O=S(=O)(O)c1ccc(N=Nc2c(O)ccc3ccccc23)cc1 [Acid Orange 7, 4-[(2-hydroxy-1-naphthyl)azo]benzene sulphonate]",solubility in water,more than 7 g/L
"O=[N+]([O-])c1cc([N+](=O)[O-])c2ccc(S(=O)(=O)O)cc2c1O [Acid Yellow 9, 8-hydroxy-5,7-dinitro-2-naphthalenesulfonic acid]",solubility in water,above 40 g/L
"O=C(O)C1=NN(c2ccc(S(=O)(=O)O)cc2)C(=O)C1N=Nc1ccc(S(=O)(=O)O)cc1 (stereo not shown) [Acid Yellow 23, 4,5-dihydro-5-oxo-1-(4-sulfophenyl)-4-((4-sulfophenyl)azo)-1H-pyrazole-3-carboxylic acid]",solubility in water (in words),highly soluble
Acid Yellow 3,solubility in water,20 mg/mL
